Data on 13 molecules can be found in US20080213815A1, “DIAGNOSING BREAST CANCER BY SEPRASE LEVEL” (DUBLIN CITY UNIVERSITY, priority 2007, published 2008).

Where two headings read alike, the source gives them in different places. Where a SMILES comes first, the peptide text is derived from it. The star is where a group is joined. AFC = O=c1cc(C(F)(F)F)c2ccc(N*)cc2o1

One test addresses T1, Prolyl Oligopeptidase (Homo sapiens, UniProt P48147).
T1 sequence (P48147 1-710): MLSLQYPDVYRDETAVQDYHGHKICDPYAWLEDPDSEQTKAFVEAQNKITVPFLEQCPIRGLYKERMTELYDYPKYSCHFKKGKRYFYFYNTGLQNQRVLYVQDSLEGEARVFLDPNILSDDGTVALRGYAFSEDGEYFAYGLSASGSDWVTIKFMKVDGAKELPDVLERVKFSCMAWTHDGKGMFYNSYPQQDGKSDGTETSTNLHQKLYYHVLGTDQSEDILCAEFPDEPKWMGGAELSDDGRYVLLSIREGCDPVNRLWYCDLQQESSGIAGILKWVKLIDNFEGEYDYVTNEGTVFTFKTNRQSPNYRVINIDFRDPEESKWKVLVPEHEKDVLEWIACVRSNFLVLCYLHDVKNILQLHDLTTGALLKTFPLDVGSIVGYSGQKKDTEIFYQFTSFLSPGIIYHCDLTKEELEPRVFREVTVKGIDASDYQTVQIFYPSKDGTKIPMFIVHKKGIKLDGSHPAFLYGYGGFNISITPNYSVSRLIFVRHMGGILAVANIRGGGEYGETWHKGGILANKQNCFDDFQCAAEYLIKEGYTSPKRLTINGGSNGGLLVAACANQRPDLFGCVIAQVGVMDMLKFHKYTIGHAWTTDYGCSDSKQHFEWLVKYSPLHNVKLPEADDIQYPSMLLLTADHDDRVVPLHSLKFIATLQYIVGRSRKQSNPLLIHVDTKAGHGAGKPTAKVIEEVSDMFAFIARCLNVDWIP

The target in test [1] is T2, PO (Prolyl Oligopeptidase) (Homo sapiens, UniProt P48147).
T2 construct: from tissue; host or cells: serum
T2 sequence (P48147 1-710): T1 sequence (P48147 1-710)
Put plainly: Fluorimetric Z-Gly-Pro-AMC assay in serum with PO inhibitor. The class given is biochemical. Conditions: JTP-4819 at a concentration of 4×10^−6M in the assay; 100 μM Z-Gly-Pro-AMC, 37° C. Here is the method: A 25 μl aliquot of serum was pre-incubated for 15 minutes at 37° C. with 5 μl of 2.5×10^−4M JTP-4819 in 10% v/v MeOH in a 96 well microtitre plate prior to substrate addition. Next, 100 μl of 100μM Z-Gly-Pro-AMC substrate in 4% MeOH was added to the sample and the microtitre plate was incubated at 37° C. for 60 mins. Reactions were terminated by the addition of 170 μl of 1.5M acetic acid. Blanks or negative controls were prepared by adding 170 μl of 1.5M acetic acid to 25 μl of enzyme sample prior to substrate addition and incubation at 37° C. for 60 mins. The assay is performed in triplicate and at three different times. […] This concentration is obtained by adding 5 μl of 2.5×10^−4 M JTP-4819 to the assay.
Fluorimetric analysis of these samples was achieved using a Perkin Elmer LS50 Fluorescence Spectrophotometer at excitation and emission wavelengths of 370 nm and 440 nm respectively. Excitation slit widths were maintained at 10 nm while emission slit widths were adjusted accordingly for the range being analysed.
End point measurements were allowed, as the enzyme assay was linear with respect to time and enzyme concentration up to 60 mins. Fluorimetric intensities observed were converted to nanomoles AMC released per minute per ml using the appropriate standard curve. Enzyme units were defined as nanomoles of AMC released per minute at 37° C.

For a further test, the target named is T3, Seprase (Homo sapiens, UniProt Q12884).
T3 sequence (Q12884 1-760): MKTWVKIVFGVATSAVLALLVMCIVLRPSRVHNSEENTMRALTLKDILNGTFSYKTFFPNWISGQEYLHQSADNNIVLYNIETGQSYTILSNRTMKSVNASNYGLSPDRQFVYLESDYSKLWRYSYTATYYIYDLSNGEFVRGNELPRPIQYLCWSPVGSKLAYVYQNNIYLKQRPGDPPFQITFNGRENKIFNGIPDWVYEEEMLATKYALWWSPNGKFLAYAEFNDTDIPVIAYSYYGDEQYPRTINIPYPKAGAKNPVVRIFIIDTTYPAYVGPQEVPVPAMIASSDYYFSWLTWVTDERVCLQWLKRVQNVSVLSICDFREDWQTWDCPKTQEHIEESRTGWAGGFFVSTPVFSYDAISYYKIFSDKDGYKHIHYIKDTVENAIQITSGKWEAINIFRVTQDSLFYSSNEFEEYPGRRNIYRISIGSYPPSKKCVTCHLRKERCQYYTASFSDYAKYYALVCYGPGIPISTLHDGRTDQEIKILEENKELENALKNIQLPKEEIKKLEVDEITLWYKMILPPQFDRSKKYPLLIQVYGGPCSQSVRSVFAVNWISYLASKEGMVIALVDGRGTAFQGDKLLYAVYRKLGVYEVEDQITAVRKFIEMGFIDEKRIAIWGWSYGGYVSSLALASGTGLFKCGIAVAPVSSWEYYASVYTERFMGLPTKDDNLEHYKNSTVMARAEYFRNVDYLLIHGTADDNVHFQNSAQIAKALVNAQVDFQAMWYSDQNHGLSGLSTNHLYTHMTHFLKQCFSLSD
The test can be described thus: Seprase activity towards fluorogenic substrates. It counts as biochemical. The note with it: compared with substrate Z-Gly-Pro-AMC. The source says:
The substrate used for the test is Benzyloxycarbonyl (Z)-Gly-Pro-7-amino-4-methylcoumarin (AMC) [Z-Gly-Pro-AMC]. […] This substrate is for a completely different enzyme, namely DPPII.

The mark [2] stands for this setting: Prolyl Oligopeptidase specific inhibitors, Table 5, Bacterial Inhibitor; cited from earlier work.
Setting [3] is: Prolyl Oligopeptidase specific inhibitors, Table 5; read-out: Potency Ki; cited from earlier work.
Setting [4] is: Prolyl Oligopeptidase specific inhibitors, Table 5; read-out: Potency IC50; cited from earlier work.

For Postatin, the “Potency IC50” value at Prolyl Oligopeptidase (setting [2]) was “IC50 = 0.03 μg/mL”.

`CC(C)CC/C=C/C(=O)NC1CCCNC(=O)C(CC(C)C)NC(=O)C(=O)C(C)NC1=O` (stereo not drawn) [Eurystatin A]: the “Potency IC50” value on Prolyl Oligopeptidase (setting [2]) is “IC50 = 0.004 μg/mL”.

As to `CC(NC(=O)OCC1c2ccccc2-c2ccccc21)C(=O)N1CCCC1C#N` (stereo not drawn) [Fmoc-Ala-Pro-CN], the Ki (in general, a measure of affinity in units of concentration, obtained from inhibition or displacement) on Prolyl Oligopeptidase (setting [3]) was 5 nM.

In the case of `COc1cccc2c1C(=O)c1ccc3c(c1C2=O)C(=O)C[C@@H](C)[C@H]3O` [SNA-8073-B], on Prolyl Oligopeptidase (setting [3]), the Ki was 8000 nM. For the molecule Propeptin, at Prolyl Oligopeptidase (setting [3]), the Ki was 700 nM. On to `N#CC1CCCN1C(=O)C1CCCN1C(=O)OCC1c2ccccc2-c2ccccc21` (stereo not drawn) [Fmoc-Pro-Pro-CN], for which, on Prolyl Oligopeptidase (setting [3]), the Ki is 5 nM. With `O=CC1CCCN1C(=O)C1Cc2ccccc2N1C(=O)OCc1ccccc1` (stereo not drawn) [Z-Indolinyl-Prolinal], at Prolyl Oligopeptidase (setting [3]), the Ki is 2.4 nM.

For the molecule `O=C[C@@H]1CCCN1C(=O)CCC(=O)NCc1ccc(Cl)cc1` [ONO-1603], the IC50 (as a rule, the concentration needed to halve the response being measured) on Prolyl Oligopeptidase (setting [4]) was 57 nM.

Regarding `CN[C@@H]1C[C@H]2O[C@@](C)([C@@H]1OC)n1c3ccccc3c3c4c(c5c6ccccc6n2c5c31)C(=O)NC4` [Staurosporine], the Ki on Prolyl Oligopeptidase (read-out: Potency Ki; Prolyl Oligopeptidase specific inhibitors, Table 5; cited from earlier work) was 700 nM. Turning to `CCC(C)CC/C=C/C(=O)NC1CCCNC(=O)C(CC(C)C)NC(=O)C(=O)C(C)NC1=O` (stereo not drawn) [Eurystatin B], at Prolyl Oligopeptidase (setting [2]), the “Potency IC50” value is “IC50 = 0.002 μg/mL”. On to `O=C(CO)[C@@H]1CCCN1C(=O)[C@@H]1CCCN1C(=O)NCc1ccccc1` [JTP-4819], for which the “PO sensitivity to inhibitor” value in test [1] was “sensitive”. The IC50 at Prolyl Oligopeptidase (setting [4]) was 0.83 nM. In addition, the Ki on Prolyl Oligopeptidase (setting [3]) was 0.045 nM. Consider `C[C@H](N)C(=O)N1CCC[C@H]1C(=O)Nc1ccc2c(C(F)(F)F)cc(=O)oc2c1` [Ala-Pro-7-amino-4-trifluoromethylcoumarin] (H-Ala-Pro-{AFC}), for which the “Seprase activity towards substrate” value on Seprase is on record as “markedly less activity”. In the case of `O=C(C1CCCN1C(=O)OCc1ccccc1)N1CCC(F)C1` (stereo not drawn) [Z-Pro-3-fluoropyrrolidine], the Ki on Prolyl Oligopeptidase (setting [3]) was 0.8 nM.
